Laboratory results: the supplement of paper PMC10307832

compound: CC[C@@H]1C(=O)N(C)c2cnc(Nc3ccc(C(=O)NC4CCN(C)CC4)cc3OC)nc2N1C1CCCC1 [BI-2536] + O=C(c1cc(Cc2n[nH]c(=O)c3ccccc23)ccc1F)N1CCN(C(=O)C2CC2)CC1 [Olaparib] (partner 8 µM); test: relative viability (nuclei count vs DMSO), 5 days (fraction); higher = more cells survive; conditions: first compound 0.01 µM
Method in brief: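 The day after seeding in 1536-well plates, lung cancer cell lines were treated by pin tool with a single drug, or with a fixed anchor-drug dose together with five library-drug doses (not always all listed) in √10 steps. After 5 days, a combined fix-and-stain solution (final 0.05% Triton X-100, 1% formaldehyde, 1 ug/ml Hoechst) was added. Nuclei counted on 4× images gave relative viability as treated counts over vehicle counts, reported as the median of duplicate plates.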

| Cell Line | relative viability |
| --- | --- |
| LK-2 | 0.578 |
| NCI-H2087 | 0.614 |
| SK-MES-1 | 0.72 |
| H3255 | 0.529 |
| COR-L23 | 0.384 |
| COR-L 105 | 0.655 |
| IA-LM | 0.763 |
| LOU-NH91 | 0.934 |
| ChaGo-K-1 | 0.414 |
| NCI-H2170 | 0.597 |
| NCI-H2405 | 0.855 |
| HCC-44 | 1.05 |
| A549 | 0.267 |
| SW 900 | 0.804 |
| LU99A | 0.23 |
| BEN | 1.09 |
| HARA | 0.8 |
| NCI-H1648 | 0.794 |
| HCC-78 | 0.783 |
| NCI-H322M | 0.74 |
| LCLC-97TM1 | 0.463 |
| NCI-H2009 | 0.665 |
| A-427 | 0.727 |
| NCI-H441 | 0.522 |
| NCI-H661 | 0.763 |

| Cell Line | relative viability |
| --- | --- |
| NCI-H1734 | 0.605 |
| NCI-H460 | 0.488 |
| NCI-H2347 | 0.537 |
| SK-LU-1 | 0.418 |
| NCI-H1395 | 0.4 |
| 201T | 0.879 |
| NCI-H1915 | 0.218 |
| HCC-827 | 0.693 |
| LXF-289 | 1 |
| NCI-H23 | 0.307 |
| NCI-H1299 | 1.01 |
| NCI-H647 | 0.481 |
| CAL-12T | 0.682 |
| NCI-H1651 | 0.185 |
| EPLC-272H | 0.478 |
| NCI-H2228 | 0.596 |
| NCI-H1792 | 0.543 |
| NCI-H1355 | 0.728 |
| NCI-H3122 | 0.621 |
| NCI-H1437 | 0.6 |
| NCI-H1755 | 0.945 |
| NCI-H2023 | 0.426 |
| HCC-15 | 0.612 |
| NCI-H1793 | 0.674 |
| PC-14 | 0.258 |

same assay, conditions: first compound 0.03162 µM

| Cell Line | relative viability |
| --- | --- |
| NCI-H522 | 0.594 |
| NCI-H727 | 0.765 |
| NCI-H1650 | 0.689 |
| EBC-1 | 0.612 |
| NCI-H1703 | 0.315 |
| NCI-H1993 | 0.861 |
| SW 1573 | 0.266 |
| NCI-H838 | 0.638 |
| LCLC-103H | 0.86 |
| NCI-H520 | 0.217 |
| NCI-H2126 | 0.891 |
| EMC-BAC-2 | 0.324 |
| NCI-H2085 | 0.697 |
| Calu-6 | 0.524 |
| HCC-366 | 0.368 |
| NCI-H1666 | 0.704 |
| NCI-H596 | 0.731 |
| LK-2 | 0.491 |
| NCI-H2087 | 0.673 |
| NCI-H2342 | 0.424 |
| SK-MES-1 | 0.656 |
| H3255 | 0.401 |
| COR-L23 | 0.288 |

| Cell Line | relative viability |
| --- | --- |
| COR-L 105 | 0.668 |
| IA-LM | 0.752 |
| LOU-NH91 | 0.728 |
| ChaGo-K-1 | 0.308 |
| NCI-H2170 | 0.525 |
| NCI-H2405 | 0.547 |
| HOP-62 | 0.309 |
| HCC-44 | 1 |
| A549 | 0.444 |
| SW 900 | 1.05 |
| LU99A | 0.24 |
| BEN | 0.984 |
| HARA | 0.988 |
| NCI-H1648 | 0.887 |
| HCC-78 | 0.904 |
| NCI-H322M | 0.692 |
| LCLC-97TM1 | 0.292 |
| NCI-H2009 | 0.54 |
| A-427 | 0.593 |
| NCI-H441 | 0.354 |
| NCI-H661 | 0.468 |
| NCI-H1734 | 0.618 |
| NCI-H460 | 0.421 |

| Cell Line | relative viability |
| --- | --- |
| NCI-H2347 | 0.501 |
| SK-LU-1 | 0.503 |
| NCI-H1395 | 0.396 |
| 201T | 0.796 |
| NCI-H1915 | 0.205 |
| HCC-827 | 0.611 |
| LXF-289 | 0.719 |
| NCI-H23 | 0.318 |
| NCI-H1299 | 0.907 |
| NCI-H647 | 0.281 |
| CAL-12T | 0.596 |
| NCI-H1651 | 0.173 |
| EPLC-272H | 0.111 |
| NCI-H2228 | 0.553 |
| NCI-H1792 | 0.374 |
| NCI-H1355 | 0.598 |
| NCI-H3122 | 0.595 |
| NCI-H1437 | 0.494 |
| NCI-H1755 | 0.816 |
| NCI-H2023 | 0.338 |
| HCC-15 | 0.557 |
| NCI-H1793 | 0.767 |
| PC-14 | 0.155 |

same assay, conditions: first compound 0.1 µM

| Cell Line | relative viability |
| --- | --- |
| NCI-H522 | 0.689 |
| NCI-H727 | 0.643 |
| NCI-H1650 | 0.609 |
| EBC-1 | 0.377 |
| NCI-H1703 | 0.209 |
| NCI-H1993 | 0.749 |
| SW 1573 | 0.12 |
| NCI-H838 | 0.368 |
| LCLC-103H | 0.77 |
| NCI-H520 | 0.228 |
| NCI-H2126 | 0.77 |
| EMC-BAC-2 | 0.303 |
| NCI-H2085 | 0.544 |
| Calu-6 | 0.243 |
| HCC-366 | 0.21 |
| NCI-H1666 | 0.671 |
| NCI-H596 | 0.59 |
| LK-2 | 0.28 |
| NCI-H2087 | 0.471 |
| NCI-H2342 | 0.367 |
| SK-MES-1 | 0.199 |
| H3255 | 0.406 |

| Cell Line | relative viability |
| --- | --- |
| COR-L23 | 0.156 |
| COR-L 105 | 0.679 |
| IA-LM | 0.402 |
| LOU-NH91 | 0.612 |
| ChaGo-K-1 | 0.265 |
| NCI-H2170 | 0.39 |
| NCI-H2405 | 0.325 |
| HOP-62 | 0.191 |
| HCC-44 | 0.952 |
| A549 | 0.125 |
| SW 900 | 0.691 |
| LU99A | 0.192 |
| BEN | 0.779 |
| HARA | 0.507 |
| NCI-H1648 | 0.545 |
| HCC-78 | 0.774 |
| NCI-H322M | 0.637 |
| LCLC-97TM1 | 0.233 |
| NCI-H2009 | 0.45 |
| A-427 | 0.385 |
| NCI-H441 | 0.171 |
| NCI-H661 | 0.354 |
